Earlier results on two compounds are cited in US11103497B2, “Treatment of imatinib resistant leukemia” (Wyeth LLC, priority 2007, dated 2021).

Molecules are shown by their SMILES.

The subject of series [1] is BcrAbl T315I. The note with it: patients with amino acid mutation T315I in BcrAbl; cited from earlier work.
Series [2] has as its system chronic myeloid leukemia. The note with it: patients with chronic myeloid leukemia; cited from earlier work.
Series [3] deals with CML cells. To be noted: in culture; cited from earlier work.
Series [4] deals with CML tumors. The note with it: nude mice; cited from earlier work.

For the compound `Cc1cn(-c2cc(NC(=O)c3ccc(C)c(Nc4nccc(-c5cccnc5)n4)c3)cc(C(F)(F)F)c2)cn1` [nilotinob], the “effectiveness against CML” value in series [1] was “not effective”.
As to `Cc1ccc(NC(=O)c2ccc(CN3CCN(C)CC3)cc2)cc1Nc1nccc(-c2cccnc2)n1` [Imatinib], the 5-year survival rate in series [2] is listed as roughly 90%. Moreover, the “toxicity to CML cells” value in series [3] is recorded as “toxic”. For the same compound, the “regression of CML tumors” value in series [4] is recorded as “causes regression”.
